# Results published in patent US8946426B2, “Substituted bicyclic heterocyclic compounds as gamma secretase modulators” (Janssen Pharmaceuticals, Inc., priority 2009, dated 2015).
# Columns and labels:
# [1] = test system: Aβtotal; assay: Method 1: Aβtotal sandwich ELISA in supernatant of SKNBE2 cells carrying APP 695-wild type (Tables 7a, 7b); type: cell-based
# Summary of the method: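 SKNBE2 cells expressing wild-type APP695 were exposed to compound for 18 Hours in Ultraculture with 1% glutamine. Aβtotal in the supernatant was read by 6E10-capture/biotinylated 4G8 sandwich ELISA with a fluorogenic peroxidase read-out, and WST-1 checked toxicity. IC50 came from a 4-parameter fit of percent inhibition or percent of control versus concentration.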
# [2] = test system: Aβtotal; assay: In vivo efficacy: Aβtotal lowering in brain after single oral dose (Table 8); conditions: mouse brain soluble fraction, ELISA, compared to untreated animals
# Text: (§1) To determine whether acute administration of an Aβ42 lowering agent would reduce Aβ42 levels in vivo, non-transgenic rodents, e.g. mice or rats were used. Alternatively, two to three month old Tg2576 mice expressing APP695 containing the “Swedish” variant can be used or a transgenic mouse model developed by Dr. Fred Van Leuven (K.U.Leuven, Belgium) and co-workers, with neuron-specific expression of a clinical mutant of the human amyloid precursor protein [V7171] (Moechars et al., 1999 J. Biol. Chem. 274, 6483). Young transgenic mice have high levels of Aβ in the brain but no detectable Aβ deposition. At approximately 6-8 months of age, the transgenic mice start to display spontaneous, progressive accumulation of β-amyloid (Aβ) in the brain, eventually resulting in amyloid plaques within the subiculum, hippocampus and cortex. Animals treated with the Aβ42 lowering agent were examined and compared to those untreated or treated with vehicle and brain levels of soluble Aβ42 and total Aβ would be quantitated by standard techniques, for example, using ELISA. Treatment periods varied from hours to days and were adjusted based on the results of the Aβ42 lowering once a time course of onset of effect could be established.
# (§2) A typical protocol for measuring Aβ42 lowering in vivo is shown but it is only one of many variations that could be used to optimize the levels of detectable Aβ. For example, Aβ42 lowering compounds were formulated in 20% of Captisol® (a sulfobutyl ether of β-cyclodextrin) in water or 20% hydroxypropyl β cyclodextrin. The Aβ42 lowering agents were administered as a single oral dose or by any acceptable route of administration to overnight fasted animals. After four hours, the animals were sacrificed and Aβ42 levels were analysed.
# (§3) Blood was collected by decapitation and exsanguinations in EDTA-treated collection tubes. Blood was centrifuged at 1900 g for 10 min at 4° C. and the plasma recovered and flash frozen for later analysis. The brain was removed from the cranium and hindbrain. The cerebellum was removed and the left and right hemisphere were separated. The left hemisphere was stored at −18° C. for quantitative analysis of test compound levels. The right hemisphere was rinsed with phosphate-buffered saline (PBS) buffer and immediately frozen on dry ice and stored at −80° C. until homogenization for biochemical assays.
# (§4) Mouse brains were resuspended in 10 volumes of 0.4% DEA (diethylamine)/50 mM NaCl pH 10 (for non-transgenic animals) or 0.1% 3-[(3-cholamidopropyl)-dimethyl-ammonio]-1-propanesulfonate (CHAPS) in tris buffered saline (TBS) (for transgenic animals) containing protease inhibitors (Roche-11873580001 or 04693159000 per gram of tissue, e.g. for 0.158 g brain, add 1.58 ml of 0.4% DEA. All samples were sonicated for 30 sec on ice at 20% power output (pulse mode). Homogenates were centrifuged at 221.300×g for 50 min. The resulting high speed supernatants were then transferred to fresh tubes and were optionally further purified before the next step. A portion of the supernatant was neutralized with 10% 0.5 M Tris-HCl and this was used to quantify Aβtotal.
# (§5) The obtained supernatants were purified with Water Oasis HLB reverse phase columns (Waters Corp., Milford, Mass.) to remove non-specific immunoreactive material from the brain lysates prior subsequent Aβ detection. Using a vacuum manifold, all solutions were passed through the columns at a rate of approximately 1 ml per minute, so the vacuum pressure was adjusted accordingly throughout the procedure. Columns were preconditioned with 1 ml of 100% MeOH, before equilibration with 1 ml of H2O. Non-neutralized brain lysates were loaded onto the columns. The loaded samples were then washed twice with the first wash performed with 1 ml of 5% MeOH, and the second wash with 1 ml of 30% MeOH. Finally, the Aβ was eluted from the columns and into 100×30 mm glass tubes, with a solution of 90% MeOH with 2% NH4OH. […]
# [3] = test system: Aβ42; assay: In vivo efficacy: Aβ42 lowering in brain after single oral dose (Table 8); conditions: mouse brain soluble fraction, ELISA, compared to untreated animals
# Text: as §1, §2, §3, §4, §5
# [4] = test system: Aβ42; assay: Method 1: Aβ42 sandwich ELISA in supernatant of SKNBE2 cells carrying APP 695-wild type (Tables 7a, 7b); type: cell-based
# Summary of the method: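 SKNBE2 cells expressing wild-type APP695 were exposed to compound for 18 hours. Secreted Aβ42 was quantified by sandwich ELISA with C-terminal-selective capture, biotinylated 3D6 detection and TMB read-out at 450 nm. IC50 came from 4-parameter fits of % inhibition or % of untreated control; WST-1 monitored toxicity.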
# [5] = test system: Aβ42; assay: Method 2: Aβ42 Alphalisa in supernatant of SKNBE2 cells carrying APP 695-wild type (Table 7c); type: cell-based; conditions: Method 2, Alphalisa, overnight incubation
# Summary of the method: (§6)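 SKNBE2 cells expressing wild-type APP695 incubated overnight at 37° C with test compound, 10^4 cells/well. Supernatant Aβ42 (C-terminal JRF/cAβ42/26 with N-terminal JRF/AβN/25) and Aβtotal (JRF/AβN/25 with 4G8) quantified by AlphaLISA. IC50 from 4-parameter fit of percent of untreated control.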
# [6] = test system: Aβtotal; assay: Method 2: Aβtotal Alphalisa in supernatant of SKNBE2 cells carrying APP 695-wild type (Table 7c); type: cell-based; conditions: Method 2, Alphalisa, overnight incubation
# Summary of the method: as §6
# [7] = test system: Notch-processing activity of the γ-secretase-complex; assay: Notch cell-free assay (NICD production from recombinant Notch substrate N99); type: biochemical; conditions: 1 μM test compound; 0.3-0.5 μM mouse Notch substrate; enriched gamma secretase; 37° C., 6 to 22 h; western blot; control GSI concentration not given
# Method: The Notch transmembrane domain is cleaved by gamma secretase to release Notch Intracellular C-terminal Domain (NICD).
# To monitor the effect of compounds on NICD production, a recombinant Notch substrate (N99) was prepared. The Notch substrate, comprised of mouse Notch fragment (V1711-E1809), an N-terminal methionine and a C-terminal FLAG sequence ([…]), was expressed in E. coli and purified on a column containing an anti-FLAG M2 affinity matrix.
# A typical Notch cell-free assay consisted of 0.3-0.5 μM Notch substrate, an enriched preparation of gamma secretase and 1 μM of a test compound (compounds 16, 18 and 106 of the present invention). Controls included a gamma secretase inhibitor (GSI), such as (2S)—N-[2-(3,5-difluorophenyl)acetyl]-L-alanyl-2-phenyl-glycine 1,1-dimethylethyl ester (DAPT) or (2S)-2-hydroxy-3-methyl-N-[(1S)-1-methyl-2-oxo-2-[[(1S)-2,3,4,5-tetrahydro-3-methyl-2-oxo-1H-3-benzazepin-1-yl]amino]ethyl]-butanamide (Semagacestat), and DMSO, the final concentration of DMSO being 1%. Recombinant Notch substrate was pre-treated with 17 μM DTT (1,4-dithiothreitol) and 0.02% SDS (Sodium Dodecyl Sulfate) and heated at 65° C. for 10 min. The mixture of substrate, gamma secretase and compound/DMSO was incubated at 37° C. for 6 to 22 hours (h). Six-hour incubation was sufficient to produce the maximal amount of NICD and the cleaved product remained stable for an additional 16 H. Reaction products were processed for SDS PAGE (Sodium Dodecyl Sulfate-Poly Acrylamide Gel Electrophoresis) and western blotting. Blots were probed with an anti-Flag M2 antibody, followed by LI-COR infrared secondary antibody, and analyzed with the Odyssey Infrared Imaging System (LI-COR® Biosciences).
# [8] = test system: mouse Notch2; assay: Notch cell-based assay (N2-CHO/DL-CHO co-culture, Dual-Glo luciferase, NICD production); conditions: Mus musculus; N2-CHO/DL-CHO co-culture 16 H; five-point curve 3 μM-0.3 nM; read-out: average IC50 values from the Notch cell-based assay (luciferase assay readouts)
# Text: The Notch cell-based assay was based on the interaction of Notch and its ligand in a co-culture system and utilized the Dual-Glo Luciferase Assay System (Promega) to monitor NICD production. Two stable cell lines, N2-CHO and DL-CHO, were established to express full-length mouse Notch2 and Delta respectively. Cells that expressed mouse Notch were also transfected with two plasmids, pTP1-Luc and pCMV-RLuc, to express firefly and Renilla luciferase. Expression of firefly luciferase was under the control of TP1 promoter that responded to NICD activation.
# N2-CHO cells were seeded at 1×10^5/well in 24-well plates the day before transfection. On the second day, cells were double transfected with 3 μg/well pTP1-Luc (expressing firefly luciferase) and 0.3 ng/well pCMV-RLuc (expressing Renilla luciferase). After 6 H incubation, transfected N2-CHO cells were washed and DL-CHO cells (2×10^5 cells/well) were added.
# Compounds were pre-mixed with DL-CHO cell suspension in a five-point curve. Typically, compound treatment was performed in duplicate with a serial 1:10 dilution (3 μM-0.3 nM) in DMSO. The final concentration of DMSO in a given culture was 1%. Controls included non-transfected cells and transfected cells treated with a GSI or DMSO only. Luciferase assays were performed after 16 H co-culture and compound treatment.
# The luciferase assay was carried out according to manufacture's instructions. Briefly, cells were washed with PBS (Phosphate Buffered Saline), lysed with Passive Lysis Buffer (Promega), and incubated at room temperature for 20 min. Lysates were mixed with Dual-Glo Luciferase Reagent and the firefly luciferase activity was measured by reading the luminescence signal in the EnVision 2101 Multilabel reader. Dual-Glo Stop & Glo Reagent was then added to each well and the Renilla luciferase signal was measured.
# [9] = Homo sapiens, SKNBE2, Table 7b, averaged IC50, non-linear regression of percentage of control vs log concentration, 4-parameter equation
# [10] = Homo sapiens, Table 7a, SKNBE2 cells, compounds 18 h, XLfit 4-parameter fit of percent inhibition, top/bottom fixed to 100/0, hill slope 1
# [11] = Table 7b, averaged IC50, non-linear regression of percentage of control vs log concentration, 4-parameter equation
Structure (SMILES),"IC50 [1, 9]","IC50 [1, 10]",melting point,"IC50 [4, 9]","IC50 [4, 10]",IC50 [8],Aβtotal (% Ctrl)_Mean [2],Aβ42 (% Ctrl)_Mean [3],effect on the Notch-processing activity of the γ-secretase-complex (production of NICD) [7],other results
COc1cc(Nc2cccc3c2nc(-c2ccc(F)cc2)n3C)ccc1-c1cnn(C)c1 [Compound 13],> 3000 nM,> 3000 nM,157.6 °C,63 nM,65 nM,–,105 % Ctrl,87 % Ctrl,–,–
COc1cc(Nc2nccc3c2nc(-c2ccc(F)cc2)n3C)ccc1-c1cnc(C)o1 [Compound 14],> 3000 nM,> 3000 nM,204.9 °C,105 nM,109 nM,–,91 % Ctrl,78 % Ctrl,–,–
Cc1ncc(-c2ccc(Nc3cc(F)cc4c3nc(-c3ccc(F)cc3)n4C)cn2)o1 [Compound 106],–,–,–,–,–,–,–,–,did not show an effect,"IC50 [1, 11]: > 1000 nM; IC50 [5]: 24 nM; IC50 [4, 11]: 10 nM; IC50 [6]: > 10 µM"

# Second part, led by results:
"IC50 [1, 9]","IC50 [1, 10]",melting point,"IC50 [4, 9]","IC50 [4, 10]",IC50 [8],Structure (SMILES),Aβtotal (% Ctrl)_Mean [2],Aβ42 (% Ctrl)_Mean [3],effect on the Notch-processing activity of the γ-secretase-complex (production of NICD) [7],other results
> 10000 nM,–,157.1 °C,25 nM,–,–,COC(=O)c1cc(Nc2ccc(-c3ocnc3C)c(OC)c2)c2nc(CC(C)C)cn2c1 [Compound 162],–,–,–,IC50 ([5]; Homo sapiens): 32 nM; IC50 ([6]; Homo sapiens): > 10 µM
–,–,–,–,–,45 nM,"C[C@H](NC(=O)Cc1cc(F)cc(F)c1)C(=O)NC(C(=O)OC(C)(C)C)c1ccccc1 (stereo partly drawn) [DAPT, (2S)—N-[2-(3,5-difluorophenyl)acetyl]-L-alanyl-2-phenyl-glycine 1,1-dimethylethyl ester, reference compound]",–,–,blocked,–
–,–,–,–,–,40 nM,"CC(C)[C@H](O)C(=O)N[C@@H](C)C(=O)N[C@@H]1C(=O)N(C)CCc2ccccc21 [Semagacestat, (2S)-2-hydroxy-3-methyl-N-[(1S)-1-methyl-2-oxo-2-[[(1S)-2,3,4,5-tetrahydro-3-methyl-2-oxo-1H-3-benzazepin-1-yl]amino]ethyl]-butanamide, reference compound]",–,–,blocked,–
